The source made the active and inactive calls. No cut-off for these calls is given here.
How the values were obtained:
[1] = Half life in human microsomes at 1 uM in presence of NADPH
L6 = experiment: Cytotoxicity against rat L6 cells assessed as growth inhibition after 72 hrs by Alamar blue assay; assay type: cell-based; details: L6, 72 h
[2] = Half life in human microsomes at 1 uM in absence of NADPH
[3] = test system: Trypanosoma brucei rhodesiense; experiment: Antiparasitic activity against trypomastigote stage of Trypanosoma brucei rhodesiense STIB 900 assessed as parasite growth inhibition after 72 hrs by Alamar blue assay; assay type: functional, organism-based; details: STIB 900, 72 h
Trypanosoma cruzi [4] = experiment: Antiparasitic activity against amastigote stage of Trypanosoma cruzi Tulahuen C4 infected in rat L6 cells assessed as parasite growth inhibition after 96 hrs by beta-galactosidase reporter gene assay; assay type: functional, organism-based; details: Tulahuen C4, L6, 96 h
Leishmania donovani [5] = experiment: Antileishmanial activity against amastigote stage of Leishmania donovani infected in mouse peritoneal macrophages assessed as reduction in parasite burden after 96 hrs by Giemsa staining method; assay type: functional, organism-based
[6] = Selectivity index, ratio of IC50 for rat L6 cells to IC50 for axenic amastigote stage of Leishmania donovani MHOM-ET-67/L82
Trypanosoma cruzi [7] = experiment: Potency index, ratio of benznidazole IC50 to compound IC50 for amastigote stage of Trypanosoma cruzi Tulahuen C4 infected in rat L6 cells; assay type: functional
[8] = Cytotoxicity against mouse peritoneal macrophages; assay type: cell-based; details: Peritoneal macrophage cell
Leishmania donovani [9] = experiment: Potency index, ratio of miltefosine IC50 to compound IC50 for axenic amastigote stage of Leishmania donovani MHOM-ET-67/L82; assay type: functional
[10] = Selectivity index, ratio of IC50 for rat L6 cells to IC50 for amastigote stage of Trypanosoma cruzi Tulahuen C4 infected in rat L6 cells
Leishmania donovani [11] = experiment: Antiparasitic activity against axenic amastigote stage of Leishmania donovani MHOM-ET-67/L82 assessed as parasite growth inhibition after 72 hrs by Alamar blue assay; assay type: functional, organism-based; details: MHOM-ET-67/L82, 72 h
[12] = test system: Trypanosoma brucei brucei; experiment: Antiparasitic activity against blood stream form of Trypanosoma brucei brucei overexpressing type-1 nitroreductase after 3 days by Alamar blue assay in presence of tetracycline; assay type: functional, organism-based; details: 72 h
[13] = test system: Trypanosoma brucei brucei; experiment: Ratio of IC50 for blood stream form of Trypanosoma brucei brucei overexpressing type-1 nitroreductase in absence of tetracycline to IC50 for blood stream form of Trypanosoma brucei brucei overexpressing type-1 nitroreductase in presence of tetracycline; assay type: functional
[14] = test system: Trypanosoma brucei brucei; experiment: Antiparasitic activity against wild type blood stream form of Trypanosoma brucei brucei after 3 days by Alamar blue assay; assay type: functional, organism-based; details: 72 h
Mus musculus = experiment: Toxicity in Balb/c mouse at 13 mg/kg/day, ip; assay type: organism-based; details: in vivo
[15] = Prodrug conversion assessed as Trypanosoma cruzi recombinant type-1 nitroreductase-mediated drug metabolism by measuring NADH oxidation after 5 mins by spectrophotometric analysis; assay type: ADME; details: isolated protein
[16] = test system: Trypanosoma brucei brucei; experiment: Antiparasitic activity against blood stream form of Trypanosoma brucei brucei overexpressing type-1 nitroreductase after 3 days by Alamar blue assay in absence of tetracycline; assay type: functional, organism-based; details: 72 h
Trypanosoma cruzi [17] = experiment: Antichagasic activity against trypomastigote stage of Trypanosoma cruzi Brazil infected in Balb/c mouse assessed as reduction in parasite load at 13 mg/kg/day, ip measured after 5 days by luciferase reporter gene assay; assay type: functional, organism-based
[18] = Prodrug conversion assessed as Trypanosoma brucei recombinant His-tagged type-1 nitroreductase-mediated drug metabolism by measuring NADH oxidation after 5 mins by spectrophotometric analysis; assay type: ADME; details: isolated protein
[19] = Selectivity index, ratio of IC50 for rat L6 cells to IC50 for trypomastigote stage of Trypanosoma brucei rhodesiense STIB 900
[20] = Efflux ratio of apparent permeability across basolateral to apical side over apical to basolateral side in human Caco2 cells after 2 hrs; details: Caco-2

| Structure (SMILES) | IC50 (L6) [µM] | IC50 [3] [µM] | IC50 (Trypanosoma cruzi [4]) [µM] | IC50 (Leishmania donovani [5]) [µM] | selectivity ratio [6] | Ratio IC50 (Trypanosoma cruzi [7]) | IC50 [8] [µM] | Ratio IC50 (Leishmania donovani [9]) | selectivity ratio [10] | IC50 (Leishmania donovani [11]) [µM] | IC50 [12] [µM] | Ratio IC50 [13] | Drug metabolism [15] [nmol/min/mg] | IC50 [16] [µM] | Drug metabolism [18] [nmol/min/mg] | selectivity ratio [19] | also measured |
| --- | --- | --- | --- | --- | --- | --- | --- | --- | --- | --- | --- | --- | --- | --- | --- | --- | --- |
| O=C(Cn1cnc([N+](=O)[O-])n1)Nc1cccc(-c2ccccc2)c1 | 45 | – | – | – | – | – | – | – | – | – | – | – | – | – | – | – | half-life at 1 µM [1]: 1.06 h; half-life at 1 µM [2]: 1.8 h |
| O=C(Cn1ccnc1[N+](=O)[O-])Nc1ccc(Oc2ccccc2)cc1 | 62 | 15 | 4.2 | 16 | 79 | 0.48 | > 89 | 0.21 | 15 | 0.79 | – | – | – | – | – | – | – |
| O=C(Cn1cnc([N+](=O)[O-])n1)Nc1ccc(-c2ccc(Cl)cc2)cc1 | – | – | – | > 84 | 738 | 45 | > 84 | 0.95 | 2800 | 0.17 | 0.85 | 0.8 | 585 | 0.69 | 2492 | 140 | IC50 [14]: 0.69 µM; Activity (Mus musculus): Non-toxic; Activity (Trypanosoma cruzi [17]): Active |
| O=C(Cn1cnc([N+](=O)[O-])n1)Nc1ccc(Oc2ccc(F)cc2)cc1 | 70 | 2 | 0.036 | > 28 | 384 | 56 | 84 | 0.89 | 1950 | 0.18 | 0.77 | 4.8 | 516 | 3.67 | 2702 | 35 | IC50 [14]: 3.13 µM; Activity (Mus musculus): Non-toxic; Activity (Trypanosoma cruzi [17]): Active |
| CC(C)NCC(O)COc1ccc(CC(N)=O)cc1 (centres undefined) [ATENOLOL] | – | – | – | – | – | – | – | – | – | – | – | – | – | – | – | – | efflux ratio at 2 h [20]: 3.7 |
| CCCCCCCCCCCCCCCCOP(=O)([O-])OCC[N+](C)(C)C [MILTEFOSINE] | – | – | – | 6.89 | – | – | – | – | – | – | – | – | – | – | – | – | – |
| O=C(Cn1cnc([N+](=O)[O-])n1)NC1CCN(Cc2ccccc2)CC1 | 114 | 12 | 8 | – | < 1 | 0.28 | – | – | 14 | 133 | – | – | – | – | – | 9.6 | – |
| O=C(Cn1cnc([N+](=O)[O-])n1)Nc1ccc(Cc2ccccc2)cc1 | 36 | 2.1 | 0.068 | > 30 | 31 | 34 | > 89 | 0.12 | 528 | 1.2 | – | – | – | – | – | 17 | – |
| O=C(Cn1ccnc1[N+](=O)[O-])Nc1ccc(Oc2ccc(Cl)cc2)cc1 | 127 | 2.6 | 2.6 | 15 | 937 | 0.78 | > 81 | 1.2 | 49 | 0.14 | 1.71 | 3.8 | 817 | 6.48 | 3337 | 50 | IC50 [14]: 4.72 µM |
| O=C(Cn1ccnc1[N+](=O)[O-])NCc1ccccc1 [BENZNIDAZOLE] | – | – | – | – | – | – | – | – | – | – | – | – | 680 | – | 1540 | – | Activity (Mus musculus): Non-toxic; Activity (Trypanosoma cruzi [17]): Active |
| O=C(Cn1cncn1)Nc1ccc(Oc2ccc(Cl)cc2)cc1 | 137 | 26 | 18 | – | 5 | – | – | – | 7.5 | 29 | – | – | – | – | – | – | – |
| O=C(Cn1ccnc1[N+](=O)[O-])Nc1ccc(Oc2ccc(F)cc2)cc1 | 123 | 13 | 3.3 | 14 | 418 | 0.61 | > 84 | 0.55 | 37 | 0.29 | – | – | – | – | – | 9 | – |
| O=C(Cn1cnc([N+](=O)[O-])n1)Nc1ccc(Oc2ccccc2)cc1 | 92 | 2.7 | 0.065 | > 30 | 339 | 31 | 89 | 0.6 | 1420 | 0.27 | 1.37 | 1.7 | 815 | 2.34 | 2931 | 34 | IC50 [14]: 1.35 µM |
| O=C(Cn1cnc([N+](=O)[O-])n1)Nc1cccc(OCc2ccccc2)c1 | 68 | 4.9 | 0.028 | – | 20 | 17 | – | – | 2420 | 3.4 | – | – | – | – | – | 14 | – |
| CC1CS(=O)(=O)CCN1/N=C/c1ccc([N+](=O)[O-])o1 (centres undefined) [NIFURTIMOX] | – | – | – | – | – | – | – | – | – | – | 0.43 | 10.3 | – | 4.41 | – | – | – |
| O=C(Cn1cnc([N+](=O)[O-])n1)Nc1nccc(-c2ccccc2)n1 | 169 | 139 | 2.5 | – | – | 0.8 | – | – | 66 | > 308 | – | – | – | – | – | 1.2 | – |
| CC(C)NCC(O)COc1cccc2ccccc12 (centres undefined) [PROPRANOLOL] | – | – | – | – | – | – | – | – | – | – | – | – | – | – | – | – | efflux ratio at 2 h [20]: 3.1 |
| O=C(Cn1cnc([N+](=O)[O-])n1)Nc1ccc(Oc2ccc(Cl)cc2)cc1 | 29 | 1.3 | 0.008 | > 27 | 853 | 254 | 80 | 4.8 | 3620 | 0.034 | 1.18 | 5 | 628 | 5.9 | 2699 | 22 | IC50 [14]: 5.09 µM; Activity (Mus musculus): Non-toxic; Activity (Trypanosoma cruzi [17]): Active |
| COc1ccc2c(c1)[C@]13CCCC[C@@H]1[C@H](C2)N(C)CC3 [DEXTROMETHORPHAN] | – | – | – | – | – | – | – | – | – | – | – | – | – | – | – | – | half-life at 1 µM [1]: 1.54 h; half-life at 1 µM [2]: 2.57 h |
